The test system of one series is HIV-1(IIIB). Description: Anti-HIV activity assay, HIV-1-infected wild-type CEM/0 cell cultures. It counts as cell-based. The following applies: Human immunodeficiency virus 1, IIIB, CCRF-CEM, read-out: EC50 CEM/0 HIV-1. The protocol: (§1) γ‐(AB,alkyl)‐d4TTP prodrugs 6 and the γ‐alkyl‐d4TTPs 7 were evaluated for their ability to inhibit the replication of HIV in HIV‐1‐ or HIV‐2‐infected wild‐type CEM/0 as well as mutant thymidine‐kinase‐deficient CEM cell cultures (CEM/TK^−). For comparison, two TriPPPro derivatives 5 were also included in this assay.
(§2) Anti-HIV activity assay: Inhibition of HIV-1(IIIB)- and HIV-2(ROD)-induced cytopathicity in wild-type CEM/0 and thymidine kinase-deficient CEM/TK- cell cultures was measured in microtiter 96-well plates containing ~3·105 CEM cells/mL infected with 100 CCID50 of HIV per milliliter and containing appropriate dilutions of the test compounds. After 4−5 days of incubation at 37 °C in a CO2-controlled humidified atmosphere, CEM giant (syncytium) cell formation was examined microscopically. […]
(§3) was defined as the compound concentration required to inhibit HIV-induced giant cell formation by 50%. […]
(§4) The result was visualized by fluorescence imaging. […]
as §4

In series [1] the target is T1, HIV reverse transcriptase (RT) (Human immunodeficiency virus type 1 group M subtype B, UniProt P03366).
T1 construct: reverse transcriptase (RT; an HIV‐encoded RNA‐dependent DNA polymerase); purchased Roboklon
The series can be described thus: Primer extension assay with HIV-RT. It is filed as biochemical, HIV-1. The note with it: for primer extension by HIV-RT (substrate properties): with the other three canonical triphosphates, HIV-RT 6 U. On the procedure:
Primer-extension reactions:
HIV-RT and human DNA polymerase β and γ were obtained from Roboklon, human DNA polymerase α was obtained from Chimerx.
The primers and templates were purchased from Life Technologies and Microsynth. The fluorescent labeled primer was purchased
from Metabion and Microsynth. The gels were prepared with the size of 450mm×200mm×0.4mm according to the electrophoresis
5’-FITC and 5’-Cy3 labeled Primer-sequence:
The primer extension assays were performed under the following conditions:
FITC and Cy3 labeled primer extension assay:
1) Hybridization: After 5 min incubation at 95 °C in 20 mM Tris-HCl (pH 7.6) and 50 mM NaCl, the hybridization/annealing of the
primer to the template strand was achieved by a cooling phase from 95 °C to […] lasted more than 2 hours. […]
The assays were separated using a denaturating PAGE (15%). The result was visualized by fluorescence imaging. […]
as §4, §4

The subject of a further series is HIV-2(ROD). Description: Anti-HIV activity assay, HIV-2-infected wild-type CEM/0 cell cultures. It is filed as cell-based. The note with it: Human immunodeficiency virus 2, CCRF-CEM, read-out: EC50 CEM/0 HIV-2. On the procedure: as §1, §2, §3, §4, §4
Series [2] can be described thus: Cytotoxicity: inhibition of CD4+ T-cell (CEM) proliferation. It is filed as cell-based. The following applies: human, CEM/0 cells (CD4+ T-cells), 50 % cytostatic concentration, mean±SD, n=2-3.
Series [3] is described as follows: Chemical hydrolysis in aqueous phosphate buffer (PBS, pH 7.3). It counts as physicochemical. The following applies: for PBS pH 7.3 t 1/2 / half-life at 0.92 mM: aqueous 25 mM phosphate buffer, pH 7.3, 37 °C, removal of AB group, n.h. = no hydrolysis observed through cleavage of AB-mask; for half-life at 0.92 mM: phosphate buffered saline (PBS), read-out: PBS pH 7.3 t 1/2 (converted). On the procedure: γ‐(AB,alkyl)‐NTP prodrugs 6 and γ‐alkyl‐NTPs 7 were incubated in aqueous phosphate buffer (PBS, 25 mM, pH 7.3), or were exposed to pig liver esterase (PLE) in phosphate buffer (PBS) and to human CD4^+ T‐lymphocyte cell extracts to study their stability and the product distribution. The hydrolysis mixtures were analyzed by means of analytical rp‐18‐HPLC. The calculated half‐lives of prodrugs 6 (Table 1, t 1/2) reflect the removal of the bioreversible AB group to yield γ‐alkyl‐NTPs 7. Possible hydrolysis pathways and products are summarized in Scheme 4.
As hydrolysis products, a predominant formation of γ‐alkyl‐d4TTPs 7 and a very small amount of d4TDP […] was detected (approximately 3 %). After consumption of the starting material, no further increase of d4TDP concentration was observed. This supports the hypothesis that only the double‐γ‐esterified d4TTP prodrugs 6 were prone to a bond breakage between the γ‐ and β‐phosphate. […] In contrast to previous studies with TriPPPro‐NTPs 5 containing a second cleavable mask (first generation NTP prodrugs),[ ^23 , ^24 , ^25 ] no d4TTP was detected in these studies using 6 or 7. A side reaction occurred during the studies using compounds 7 that led to the formation of thymine by the cleavage of the glycosidic bond as reported before.[ ^19 , ^22 ]
ProLab 300 from Schott Co.. Thermomixer: Eppendorf Thermomixer 5436 and CellMedia Thermoschüttler basic were used. […]
Chemical hydrolysis of prodrugs of γ-(AB,alkyl) d4TTP 6 as well as the γ-alkyl-NTPs 7,15:
Stock solutions (50mM in DMSO-d6) of compounds 6,7 were prepared. After dilution of 11 µL stock solution with 100 µL milliQ water and 189 µL DMSO-d6 to 1.9mM hydrolysis solutions the reaction was started by addition of 300 µL phosphate buffer saline (PBS, 50mM, pH 7.3). The solution was incubated at 37 C in a thermomixer. An initial aliquot (25 µL) was taken directly and analyzed by analytical HPLC at 265-266 nm. Further aliquots were taken for monitoring the kinetic hydrolysis. The exponential decay curves (pseudo-first order) based on absolute integral values were calculated with commercially available software (OriginPro 9.0G) and yielded the half-lives t1/2 of the prodrugs via one determination. […]
The calculation of t1/2 was performed analogously to that for the chemical hydrolysis studies.
Preparation of cell extracts: Human CD4+ T-lymphocyte CEM cells were grown in RPMI-1640-based cell culture medium to a final density of ~3·10^6 cells/ml. Then, cells were centrifuged for 10 min at 1,250 rpm at 4 °C, washed twice with cold PBS, and the pellet was re-suspended at 10^8 cells/ml and sonicated (Hielscher Ultrasound Techn., 100% amplitude, 3·times for 10 sec) to destroy cell integrity. The resulting cell suspension was then centrifuged at 10,000 rpm to remove cell debris, and the supernatant divided in aliquots before being frozen at -80 C and used.
(1 picture or pasted object on this page, not shown here)

Setting [4] is: wild-type CEM/0 cells, HIV-1, mean±SD, n=2-3.
Setting [5] is: wild-type CEM/0 cells, HIV-2, mean±SD, n=2-3.

One may read the CC50 as the concentration giving 50% cytotoxicity. Low values mean greater toxicity to the cells, high ones lower toxicity to the cells.

The structures appear in SMILES notation. Read-outs that look alike come from different tables or passages of the source.

Turning to `CCCCOP(=O)(O)OP(=O)(O)OP(=O)(O)OCC1C=CC(n2cc(C)c(=O)[nH]c2=O)O1` (stereo not shown) [7 w, γ‐C4‐d4TTP], the EC50 in the series with HIV-1(IIIB) was 950 ± 510 nM; with HIV-2(ROD), 290 ± 150 nM. In addition, in series [1] (15 min incubation), the “primer extension by HIV-RT (substrate properties)” value (from here on “primer extension by HIV-RT”) is “single incorporation and an immediate chain termination”. In addition, in series [1] (incubation 10, 20, 40 and 60 min, conversion of primer to n+1 product), the “comparison of substrate properties for HIV-RT” value is “better substrates”. Besides, in series [2], the CC50 was more than 100000 nM. Besides, the “PBS pH 7.3 t 1/2” value in series [3] was “n.h.^[c]”.

Consider `CCCCCCCCCCCCCCCCCCOP(=O)(OCc1ccc(OC(=O)CCCC)cc1)OP(=O)(O)OP(=O)(O)OCC1C=CC(n2cc(C)c(=O)[nH]c2=O)O1` (stereo not shown) [6 cz, γ‐(AB‐C4,alkyl‐C18)‐d4TTP], for which the figures for the EC50 in the series on HIV-1(IIIB) (setting [4]) and with HIV-2(ROD) (setting [5]) were 180 ± 90 nM and 160 ± 100 nM, respectively. In series [2], this compound came in with a cytotoxic concentration (CC50) of 13000 ± 1000 nM. Moreover, the half-life at 0.92 mM in series [3] is 237 h.

In the case of `CCCCCCCCCCCCCCCCCCOP(=O)(O)OP(=O)(O)OP(=O)(O)OCC1C=CC(n2cc(C)c(=O)[nH]c2=O)O1` (stereo not shown) [7 z, γ‐C18‐d4TTP], the values for the EC50 with HIV-1(IIIB) and in the series on HIV-2(ROD) were 110 ± 42 nM and 110 ± 84 nM, respectively. Further, the “primer extension by HIV-RT” value is reported as “immediate chain termination” in series [1] (30 min incubation) and “Only the n+1 band was detected” in series [1] (60 min incubation, dNTPs 66 μM). The same compound had a CC50 in series [2] of 86000 ± 3000 nM. For the same compound, in series [3] (PBS pH 7.3), the “calculated half-life in PBS hydrolysis (decrease by thymine formation, cleavage of the glycosidic bond)” value is “about 1500 h”. Moreover, in series [3], the “PBS pH 7.3 t 1/2” value was “n.h.^[c]”.

Turning to `CCCCCCCCCCCCCCCC(=O)Oc1ccc(COP(=O)(OCCCC)OP(=O)(O)OP(=O)(O)OCC2C=CC(n3cc(C)c(=O)[nH]c3=O)O2)cc1` (stereo not shown) [6 ew, γ‐(AB‐C15,alkyl‐C4)‐d4TTP], the EC50 with HIV-1(IIIB) (setting [4]) came to 330 ± 110 nM; in the series with HIV-2(ROD) (setting [5]), 240 ± 10 nM. Further, the CC50 in series [2] came out at 21000 ± 2000 nM. In addition, in series [3], the half-life at 0.92 mM was 198 h.

As for `Cc1cn(C2C=CC(COP(=O)(O)OP(=O)(O)OP(=O)(O)O)O2)c(=O)[nH]c1=O` (stereo not shown) [2 t, d4TTP, reference compound], the EC50 in the series with HIV-1(IIIB) turned out to be 1050 ± 350 nM; in the series with HIV-2(ROD), 400 ± 260 nM. The “primer extension by HIV-RT” value in series [1] (60 min incubation, dNTPs 66 μM) was “only the n+1 band is visible”. Further, the CC50 in series [2] was more than 100000 nM.

The values above are taken from publication PMC7756582, “Prodrugs of γ‐Alkyl‐Modified Nucleoside Triphosphates: Improved Inhibition of HIV Reverse Transcriptase” (Angewandte Chemie (International Ed. in English), 2020).
